According to the kinase profiling compilation of Christmann-Franck et al. (2016):

Legend:
Assay in all cases: radiometric filter-binding kinase assay, Kinase HotSpot
Details in all cases: compound 0.5 µM; ATP 10 µM
HIPK3 (human) = HIPK3 (human) (UniProt Q9H422)
FRK (human) = FRK (human) (UniProt P42685)
CHEK1 (human) = CHEK1 (human) (UniProt O14757)
PIM3 (human) = PIM3 (human) (UniProt Q86V86)
FGR (human) = FGR (human) (UniProt P09769)
CDK1 CCNB1 (human) = CDK1 CCNB1 (human) (UniProt P06493+P14635)
PIM2 (human) = PIM2 (human) (UniProt Q9P1W9)
SLK (human) = SLK (human) (UniProt Q9H2G2)
STK33 (human) = STK33 (human) (UniProt Q9BYT3)
STK24 (human) = STK24 (human) (UniProt Q9Y6E0)
INSRR (human) = INSRR (human) (UniProt P14616)
TGFBR1 (human) = TGFBR1 (human) (UniProt P36897)
MAP4K2 (human) = MAP4K2 (human) (UniProt Q12851)
IRAK4 (human) = IRAK4 (human) (UniProt Q9NWZ3)
[1] = molecular target: JAK1 JH1 catalytic (human) (UniProt P23458)
ADRBK1 (human) = ADRBK1 (human) (UniProt P25098)
CSK (human) = CSK (human) (UniProt P41240)
PDGFRA (human) = PDGFRA (human) (UniProt P16234)
MAP3K2 (human) = MAP3K2 (human) (UniProt Q9Y2U5)
TNK2 (human) = TNK2 (human) (UniProt Q07912)
HCK (human) = HCK (human) (UniProt P08631)
NEK9 (human) = NEK9 (human) (UniProt Q8TD19)
PRKX (human) = PRKX (human) (UniProt P51817)
MAPK12 (human) = MAPK12 (human) (UniProt P53778)
GSK3A (human) = GSK3A (human) (UniProt P49840)
MAP3K3 (human) = MAP3K3 (human) (UniProt Q99759)
CDK1 CCNA2 (human) = CDK1 CCNA2 (human) (UniProt P06493+P20248)
CDK4 CCND3 (human) = CDK4 CCND3 (human) (UniProt P30281+P11802)
CAMK4 (human) = CAMK4 (human) (UniProt Q16566)
MAP2K2 (human) = MAP2K2 (human) (UniProt P36507)
CDK3 CCNE1 (human) = CDK3 CCNE1 (human) (UniProt Q00526+P24864)
WNK2 (human) = WNK2 (human) (UniProt Q9Y3S1)
AURKC (human) = AURKC (human) (UniProt Q9UQB9)
NEK1 (human) = NEK1 (human) (UniProt Q96PY6)
TEK (human) = TEK (human) (UniProt Q02763)
MAP3K11 (human) = MAP3K11 (human) (UniProt Q16584)
CAMK2G (human) = CAMK2G (human) (UniProt Q13555)
PAK7 (human) = PAK7 (human) (UniProt Q9P286)
MAP3K9 (human) = MAP3K9 (human) (UniProt P80192)
AKT2 (human) = AKT2 (human) (UniProt P31751)
SRC (human) = SRC (human) (UniProt P12931)
NTRK3 (human) = NTRK3 (human) (UniProt Q16288)

Chain of HIPK3 (human) (Q9H422 whole entry, looked up): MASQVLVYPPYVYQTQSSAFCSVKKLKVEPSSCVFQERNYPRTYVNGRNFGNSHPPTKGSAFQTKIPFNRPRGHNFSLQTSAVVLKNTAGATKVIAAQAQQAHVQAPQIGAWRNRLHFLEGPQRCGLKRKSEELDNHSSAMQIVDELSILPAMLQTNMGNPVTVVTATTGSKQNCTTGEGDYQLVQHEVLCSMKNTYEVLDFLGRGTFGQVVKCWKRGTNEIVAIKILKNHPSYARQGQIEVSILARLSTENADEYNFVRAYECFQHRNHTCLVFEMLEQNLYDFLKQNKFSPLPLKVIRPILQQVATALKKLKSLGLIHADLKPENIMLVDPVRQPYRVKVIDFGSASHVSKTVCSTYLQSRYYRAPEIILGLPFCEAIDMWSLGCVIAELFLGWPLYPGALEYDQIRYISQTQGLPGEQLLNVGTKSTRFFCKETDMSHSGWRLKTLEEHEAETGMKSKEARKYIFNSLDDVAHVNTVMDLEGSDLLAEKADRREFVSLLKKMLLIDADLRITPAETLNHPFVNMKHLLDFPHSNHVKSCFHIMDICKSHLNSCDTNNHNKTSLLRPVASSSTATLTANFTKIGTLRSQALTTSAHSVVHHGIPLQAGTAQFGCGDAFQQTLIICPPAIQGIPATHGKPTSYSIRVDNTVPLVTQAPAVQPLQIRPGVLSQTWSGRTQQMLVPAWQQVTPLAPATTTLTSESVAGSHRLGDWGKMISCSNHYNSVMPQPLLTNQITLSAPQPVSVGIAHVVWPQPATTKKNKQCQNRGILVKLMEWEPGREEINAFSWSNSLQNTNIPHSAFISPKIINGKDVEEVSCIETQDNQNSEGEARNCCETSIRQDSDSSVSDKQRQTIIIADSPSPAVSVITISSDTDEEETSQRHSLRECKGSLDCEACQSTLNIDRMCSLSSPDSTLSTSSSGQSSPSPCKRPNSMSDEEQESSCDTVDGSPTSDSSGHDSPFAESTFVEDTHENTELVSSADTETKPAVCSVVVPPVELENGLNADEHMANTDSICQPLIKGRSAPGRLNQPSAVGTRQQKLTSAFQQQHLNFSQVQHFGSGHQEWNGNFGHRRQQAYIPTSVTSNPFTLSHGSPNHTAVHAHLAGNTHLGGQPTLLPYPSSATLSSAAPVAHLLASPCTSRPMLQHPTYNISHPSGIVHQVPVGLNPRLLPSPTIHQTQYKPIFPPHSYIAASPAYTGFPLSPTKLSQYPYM
Chain of CAMK2G (human) (Q13555 whole entry, looked up): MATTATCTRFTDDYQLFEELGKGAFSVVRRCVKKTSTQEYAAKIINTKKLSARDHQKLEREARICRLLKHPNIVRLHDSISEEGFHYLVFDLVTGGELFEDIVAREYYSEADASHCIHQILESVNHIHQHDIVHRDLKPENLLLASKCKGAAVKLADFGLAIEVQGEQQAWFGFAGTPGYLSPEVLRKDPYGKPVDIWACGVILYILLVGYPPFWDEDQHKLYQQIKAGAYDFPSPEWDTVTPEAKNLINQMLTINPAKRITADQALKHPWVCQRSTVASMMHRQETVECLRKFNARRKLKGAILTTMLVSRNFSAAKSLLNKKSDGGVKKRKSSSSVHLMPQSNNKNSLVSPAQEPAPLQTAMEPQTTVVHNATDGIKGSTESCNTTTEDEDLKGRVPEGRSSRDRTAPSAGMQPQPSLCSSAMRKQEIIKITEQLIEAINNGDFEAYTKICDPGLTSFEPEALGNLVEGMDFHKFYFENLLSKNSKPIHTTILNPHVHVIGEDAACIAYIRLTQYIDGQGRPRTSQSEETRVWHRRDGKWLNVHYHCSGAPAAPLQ
Chain of JAK1 JH1 catalytic (human) (P23458 whole entry, looked up): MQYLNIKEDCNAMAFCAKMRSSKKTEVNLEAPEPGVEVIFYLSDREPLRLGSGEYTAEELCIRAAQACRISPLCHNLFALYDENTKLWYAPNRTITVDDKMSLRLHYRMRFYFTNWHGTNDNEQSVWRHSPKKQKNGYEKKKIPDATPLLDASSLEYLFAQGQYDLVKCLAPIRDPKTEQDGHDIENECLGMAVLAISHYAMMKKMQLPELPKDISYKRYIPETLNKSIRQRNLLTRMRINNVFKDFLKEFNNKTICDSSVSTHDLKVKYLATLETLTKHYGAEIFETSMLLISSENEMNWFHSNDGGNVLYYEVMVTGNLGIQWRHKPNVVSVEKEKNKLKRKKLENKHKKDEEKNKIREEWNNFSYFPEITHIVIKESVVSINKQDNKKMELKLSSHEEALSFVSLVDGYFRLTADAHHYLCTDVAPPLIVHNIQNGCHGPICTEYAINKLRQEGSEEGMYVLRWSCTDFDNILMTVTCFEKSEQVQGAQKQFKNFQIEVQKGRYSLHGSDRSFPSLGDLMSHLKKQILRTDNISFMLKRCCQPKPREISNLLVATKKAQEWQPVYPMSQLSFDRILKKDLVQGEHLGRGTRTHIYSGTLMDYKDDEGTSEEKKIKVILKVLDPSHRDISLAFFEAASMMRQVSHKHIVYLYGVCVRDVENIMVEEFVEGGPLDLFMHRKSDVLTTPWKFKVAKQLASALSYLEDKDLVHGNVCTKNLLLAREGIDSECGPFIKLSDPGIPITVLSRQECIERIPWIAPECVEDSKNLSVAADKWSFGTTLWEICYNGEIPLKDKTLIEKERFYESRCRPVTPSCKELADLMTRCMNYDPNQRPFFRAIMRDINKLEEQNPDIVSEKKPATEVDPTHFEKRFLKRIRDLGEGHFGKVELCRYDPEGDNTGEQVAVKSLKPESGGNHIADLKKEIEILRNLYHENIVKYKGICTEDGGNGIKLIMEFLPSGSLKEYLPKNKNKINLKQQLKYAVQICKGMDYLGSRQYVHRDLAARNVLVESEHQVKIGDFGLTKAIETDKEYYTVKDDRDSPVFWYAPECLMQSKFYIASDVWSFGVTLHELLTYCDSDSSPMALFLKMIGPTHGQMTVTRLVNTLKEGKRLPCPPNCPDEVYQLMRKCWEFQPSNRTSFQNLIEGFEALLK
Chain of PAK7 (human) (Q9P286 whole entry, looked up): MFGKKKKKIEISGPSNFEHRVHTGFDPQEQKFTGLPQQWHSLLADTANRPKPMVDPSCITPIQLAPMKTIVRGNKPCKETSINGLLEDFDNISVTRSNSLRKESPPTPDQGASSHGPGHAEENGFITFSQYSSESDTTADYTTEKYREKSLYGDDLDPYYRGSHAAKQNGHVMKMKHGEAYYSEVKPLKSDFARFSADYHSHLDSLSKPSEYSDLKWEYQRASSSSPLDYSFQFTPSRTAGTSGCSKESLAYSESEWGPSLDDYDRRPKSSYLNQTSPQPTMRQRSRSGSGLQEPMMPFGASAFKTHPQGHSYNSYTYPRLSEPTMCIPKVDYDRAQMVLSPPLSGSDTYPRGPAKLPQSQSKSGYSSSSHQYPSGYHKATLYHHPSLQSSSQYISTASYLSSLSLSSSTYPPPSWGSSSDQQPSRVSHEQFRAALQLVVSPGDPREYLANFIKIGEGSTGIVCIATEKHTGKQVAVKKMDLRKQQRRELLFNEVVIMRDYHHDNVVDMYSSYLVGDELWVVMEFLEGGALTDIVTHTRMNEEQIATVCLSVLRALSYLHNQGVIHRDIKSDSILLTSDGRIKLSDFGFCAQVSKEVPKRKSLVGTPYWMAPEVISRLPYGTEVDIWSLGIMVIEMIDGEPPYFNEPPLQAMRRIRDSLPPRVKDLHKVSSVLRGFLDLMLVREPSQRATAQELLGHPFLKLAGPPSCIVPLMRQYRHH
Chain of NEK9 (human) (Q8TD19 whole entry, looked up): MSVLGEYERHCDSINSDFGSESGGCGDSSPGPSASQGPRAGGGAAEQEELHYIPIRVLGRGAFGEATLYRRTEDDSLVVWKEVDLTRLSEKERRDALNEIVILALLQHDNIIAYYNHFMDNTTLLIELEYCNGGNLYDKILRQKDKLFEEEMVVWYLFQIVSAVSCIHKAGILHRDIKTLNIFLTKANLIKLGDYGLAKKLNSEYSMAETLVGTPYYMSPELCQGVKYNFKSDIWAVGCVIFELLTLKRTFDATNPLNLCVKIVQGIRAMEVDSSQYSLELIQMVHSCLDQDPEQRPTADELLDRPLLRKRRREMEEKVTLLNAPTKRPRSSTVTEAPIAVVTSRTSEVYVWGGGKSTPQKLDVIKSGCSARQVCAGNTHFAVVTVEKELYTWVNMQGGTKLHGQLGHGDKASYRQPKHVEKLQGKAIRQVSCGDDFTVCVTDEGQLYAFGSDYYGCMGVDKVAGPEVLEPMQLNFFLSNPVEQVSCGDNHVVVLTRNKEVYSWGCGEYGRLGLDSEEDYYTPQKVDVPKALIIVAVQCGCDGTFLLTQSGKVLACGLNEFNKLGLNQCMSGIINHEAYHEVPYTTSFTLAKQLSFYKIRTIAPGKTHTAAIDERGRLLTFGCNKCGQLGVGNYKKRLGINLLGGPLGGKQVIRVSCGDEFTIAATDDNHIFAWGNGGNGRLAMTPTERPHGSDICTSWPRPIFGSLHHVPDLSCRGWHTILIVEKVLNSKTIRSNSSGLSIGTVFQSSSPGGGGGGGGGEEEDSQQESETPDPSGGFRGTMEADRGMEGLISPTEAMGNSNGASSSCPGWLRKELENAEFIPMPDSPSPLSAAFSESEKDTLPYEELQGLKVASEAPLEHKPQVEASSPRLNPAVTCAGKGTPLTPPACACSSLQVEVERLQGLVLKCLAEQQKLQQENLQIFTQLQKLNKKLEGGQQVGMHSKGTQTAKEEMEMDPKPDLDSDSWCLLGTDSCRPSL

Structure (SMILES) | residual activity (HIPK3 (human)) [%] | residual activity (PIM3 (human)) [%] | residual activity (FGR (human)) [%] | residual activity (CDK1 CCNB1 (human)) [%] | residual activity (PIM2 (human)) [%] | residual activity (SLK (human)) [%] | residual activity (STK33 (human)) [%] | residual activity (STK24 (human)) [%] | residual activity (INSRR (human)) [%] | residual activity (TGFBR1 (human)) [%] | residual activity (MAP4K2 (human)) [%] | residual activity (IRAK4 (human)) [%] | residual activity [1] [%] | residual activity (ADRBK1 (human)) [%] | residual activity (CSK (human)) [%] | residual activity (MAP3K2 (human)) [%] | residual activity (TNK2 (human)) [%] | residual activity (HCK (human)) [%] | residual activity (NEK9 (human)) [%] | residual activity (PRKX (human)) [%] | further results
CCN(CC)CCNC(=O)c1c(C)[nH]c(/C=C2\C(=O)Nc3ccc(F)cc32)c1C | 47.3 | 56.8 | 16.4 | 103 | 97.2 | 63.8 | 31.8 | 39.7 | 21.7 | 101 | 34.4 | 27.4 | 71.9 | 94.7 | 90.2 | 51.9 | 64.1 | 40 | 100 | 105 | residual activity (FRK (human)): 84.4%; residual activity (CHEK1 (human)): 29.2%; residual activity (PDGFRA (human)): 10.9%; residual activity (MAPK12 (human)): 95.8%; residual activity (GSK3A (human)): 85.5%; residual activity (MAP3K3 (human)): 42%; residual activity (CDK1 CCNA2 (human)): 98.4%; residual activity (CDK4 CCND3 (human)): 93%; residual activity (CAMK4 (human)): 88.6%; residual activity (MAP2K2 (human)): 25.4%; residual activity (CDK3 CCNE1 (human)): 91%; residual activity (WNK2 (human)): 100%; residual activity (AURKC (human)): 72.8%; residual activity (NEK1 (human)): 72.6%; residual activity (TEK (human)): 88.6%; residual activity (MAP3K11 (human)): 68.4%; residual activity (CAMK2G (human)): 25.1%; residual activity (PAK7 (human)): 81.6%
CNC(=O)c1cc(Oc2ccc(NC(=O)Nc3ccc(Cl)c(C(F)(F)F)c3)cc2)ccn1 | 85.7 | 100 | 88.7 | 98.5 | 103 | 96.8 | 83.9 | 110 | 104 | 94.1 | 108 | 99.6 | 110 | 112 | 90.3 | 109 | 97.6 | 90.3 | 95.4 | 97.7 | residual activity (CHEK1 (human)): 173%; residual activity (PDGFRA (human)): 7.77%; residual activity (MAPK12 (human)): 94.2%; residual activity (GSK3A (human)): 103%; residual activity (MAP3K3 (human)): 107%; residual activity (CDK1 CCNA2 (human)): 100%; residual activity (CDK4 CCND3 (human)): 114%; residual activity (CAMK4 (human)): 107%; residual activity (MAP2K2 (human)): 89.7%; residual activity (CDK3 CCNE1 (human)): 96.5%; residual activity (WNK2 (human)): 101%; residual activity (AURKC (human)): 106%; residual activity (NEK1 (human)): 88.8%; residual activity (TEK (human)): 104%; residual activity (MAP3K11 (human)): 98.3%; residual activity (CAMK2G (human)): 108%; residual activity (MAP3K9 (human)): 103%; residual activity (AKT2 (human)): 103%; residual activity (PAK7 (human)): 95.9%
O=S(=O)(c1cccc2cnccc12)N1CCCNCC1 | 107 | 91.4 | 90.5 | 92.7 | 93.2 | 95.8 | 90.3 | 70.2 | 99.7 | 98.4 | 45.7 | 108 | 111 | 105 | 87.9 | 77.8 | 89.4 | 95.9 | 95.9 | 23.5 | residual activity (FRK (human)): 78.1%; residual activity (SRC (human)): 85.3%; residual activity (NTRK3 (human)): 85.5%; residual activity (MAPK12 (human)): 99.3%; residual activity (MAP3K3 (human)): 89.3%; residual activity (CDK1 CCNA2 (human)): 98.6%; residual activity (CDK4 CCND3 (human)): 98.5%; residual activity (CAMK4 (human)): 92.9%; residual activity (MAP2K2 (human)): 117%; residual activity (CDK3 CCNE1 (human)): 76.6%; residual activity (WNK2 (human)): 99.3%; residual activity (AURKC (human)): 97.4%; residual activity (NEK1 (human)): 90.3%; residual activity (TEK (human)): 98.4%; residual activity (MAP3K11 (human)): 99.7%; residual activity (CAMK2G (human)): 93.1%; residual activity (MAP3K9 (human)): 94.4%; residual activity (AKT2 (human)): 115%; residual activity (PAK7 (human)): 73.1%
